Legend:
C. elegans [1] = assay: Nematicidal activity of single fatty acid methyl ester emulsions against Caenorhabditis elegans (Example 4); assay type: cell-based
M. javanica [2] = assay: Nematicidal activity of fatty acid methyl ester emulsions against root knot nematode J2 larvae (Example 6); assay type: cell-based, Meloidogyne javanica; details: 0.1% emulsion; 48 hours incubation, counted about 24 hours after transfer to plates
Protocol: (§1) Fatty acid methyl ester emulsions were prepared following the teachings of Kim et al (U.S. Pat. No. 5,698,592). Briefly, 1 ml 1% stock solution emulsions were prepared by mixing 10 μl of fatty acid methyl ester with 20 μl of the surfactant Igepal CO 630 in a 1.5 ml eppendorf tube. After careful mixing of fatty acid and Igepal CO 630, 850 μl of ddH20 was added and mixed by gentle pipetting until a homogeneous solution was obtained. Finally, 120 μl of pure isopropanol was added and mixed by gentle pipetting. This stock solution was then used to produce various fatty acid methyl ester dilution emulsions in 24-well plate assays.
(§2) Meloidogyne incognita and javanica were prepared from tomato roots. The roots were bleached and the debris was separated from the J2 larvae and eggs by filtration followed by sucrose density gradient centrifugation. Eggs were hatched over 4 days at 15° C. and the J2 larvae were collected by passage though a filter, followed by centrifugation.
(§3) Nematodes and emulsions were incubated with shaking at room temperature for 48 hours. The contents of each well were transferred to a small spot on individual NGM plates lacking bacteria. About 24 hours after the transfer to plates, worms on and off the inoculation spot were counted as not viable or viable, respectively. Worms were considered viable if they had crawled away from the inoculation spot, or if they were moving. Worms were considered non-viable if they remained at the inoculation spot.

M. incognita [3] = assay: as above; assay type: cell-based, Meloidogyne incognita; details: 0.1% emulsion; 48 hours incubation, counted about 24 hours after transfer to plates
Protocol: as §1, §2, §3

[4] = tested on: root knot nematodes (Meloidogyne spp.); assay: Nematicidal activity against root knot nematodes, summary statement; assay type: cell-based; details: concentration of 0.1%
Protocol: as §2, §3

tomato seedlings = assay: Phytotoxicity evaluation on tomato seedlings; assay type: in vivo; details: 250 μl of 1% emulsion applied to stem-media interface of two-week seedlings
Protocol: Sterilized tomato seeds were germinated in magenta jars containing Gamborg's agar media. After two weeks of growth, seedlings were treated with 250 μl of 1% fatty acid methyl ester emulsion (nonanoic acid, ricinoleic acid, ricinelaidic acid, oleic acid, or a control emulsion lacking any fatty acid), applied directly to the stem-media interface. Tomato seedlings were scored at various times after application of emulsions.

C. elegans [5] = assay: Nematicidal activity of fatty acid methyl ester emulsions, spectrum (Example 8); assay type: cell-based, Caenorhabditis elegans; details: C. elegans mixed stage
P. trichosuri = assay: as above; assay type: cell-based, Parastrongyloides trichosuri; details: P. trichosuri infective 3rd stage larva
M. incognita [6] = assay: as above; assay type: cell-based, Meloidogyne incognita; details: M. incognita 2nd stage juveniles, scored at 48 hours
Protocol: (§4) Briefly, the indicated fatty acid emulsions were added and rapidly mixed by swirling. Nematode viability was scored by visual observation and motility assays 24 hours following addition of emulsions (48 hours for plant parasitic nematodes Meloidogyne and Heterodera species). The fatty acid emulsions tested were methyl esters of nonanoic (pelargonic) acid, ricinelaidic acid, ricinoleic acid, vernolic acid, linoleic acid, and oleic acid. […] Results shown are mean % values obtained from multiple independent experiments
(§5) The Caenorhabiditis elegans were mixed stage populations. Similar effects seen on several other free-living nematode species. The Parastrongyloides trichosuri (parasite of Australian bushtail possum) were dauer-like infective 3rd stage larva. Similar effects are also seen against free-living stages. The Meloidogyne incognita and Meloidogyne javanica (root knot nematode) were 2nd stage juveniles (dauer-like infective stage). The Heterodera glycines (soybean cyst nematode) were 2nd stage juveniles (dauer-like infective stage). Finally, the Pratylenchus scribneri (corn lesion nematode) were mixed stage populations.

M. javanica [7] = assay: as above; assay type: cell-based, Meloidogyne javanica; details: M. javanica 2nd stage juveniles, scored at 48 hours
Protocol: as §4, §5

H. glycines = assay: as above; assay type: cell-based, Heterodera glycines; details: H. glycines 2nd stage juveniles, scored at 48 hours
P. scribneri = assay: as above; assay type: cell-based, Pratylenchus scribneri; details: P. scribneri mixed stage
[8] = tested on: free-living, animal parasitic, and plant parasitic nematodes; assay: Nematicidal activity across the spectrum of nematodes, summary statement (Example 8); assay type: cell-based; details: concentrations of 0.1% and 0.01%
Protocol: as §4, §5

C. elegans [9] = assay: Nematicidal activity of emulsions made with Tween-20 (replacing Igepal CO 630) against C. elegans; assay type: cell-based, Caenorhabditis elegans; details: Tween-20 emulsion
Protocol: Some nematodes assayed as described in Example 9 lacked tolerance to emulsions made with the surfactant Igepal CO 630. For this reason some assays were repeated with Tween-20-based emulsions.
Briefly, 1 ml 1% stock solution emulsions were prepared by mixing 10 μl of fatty acid methyl ester with 20 μl of the surfactant Tween-20 in a 1.5 ml eppendorf tube. After careful mixing of fatty acid and Tween-20, 850 μl of ddH20 was added and mixed by gentle pipetting until a homogeneous solution was obtained. Finally, 120 μl of pure isopropanol was added and mixed by gentle pipetting. This stock solution was then used to produce various fatty acid methyl ester dilution emulsions in 24-well plate assays.

C. elegans [10] = assay: Nematicidal activity of emulsions made with cyclodextrins (replacing isopropanol) against C. elegans; assay type: cell-based, Caenorhabditis elegans; details: igepal CO 630 / 2-Hydroxypropyl-β-Cyclodextrin emulsion
Excerpt: In an effort to increase the bioavailability of fatty acid methyl esters in emulsions, isopropanol was replaced with one of two cyclodextrins (Methyl-β-Cyclodextrin or 2-Hydroxypropyl-β-Cyclodextrin).

[11] = tested on: everted hamster jejunal and ileal segments; details: Gaginella et al. (1975); cited from earlier work

SMILES: CCCCCCC(O)C/C=C\CCCCCCCC(=O)OC (stereo not drawn) [Ricinoleic Acid (C18-methyl ester), 12-hydroxy-cis-9-octadecenoic acid methyl ester]
- Percentage of Worm Death (C. elegans [1]; 0.003% emulsion, 1 hr): 60%
- Percentage of Worm Death (C. elegans [1]; 0.003% emulsion, 6 hr): 60%
- Percentage of Worm Death (C. elegans [1]; 0.003% emulsion, 24 hr): 60%
- Percentage of Worm Death (C. elegans [1]; 0.1% emulsion, 1 hr): 90%
- Percentage of Worm Death (C. elegans [1]; 0.1% emulsion, 6 hr): 90%
- Percentage of Worm Death (C. elegans [1]; 0.1% emulsion, 24 hr): 90%
- Nematicidal activity (in words) (C. elegans [1]; concentration of 0.1%): strongly nematicidal
- Time before strong killing effects are apparent (C. elegans [1]; emulsion, C. elegans): up to 30 minutes
- M. javanica (% not viable) (M. javanica [2]): 60%
- M. incognita (% not viable) (M. incognita [3]): 95%
- Nematicidal activity (in words) [4]: significant nematicidal activity
- Visible effects on tomato seedlings (tomato seedlings): none of the tomatoes treated with the other fatty acid methyl ester emulsions showed visible effects
- % Worm Death (24 hr) (C. elegans [5]; 0.001% solution): 30%
- % Worm Death (24 hr) (C. elegans [5]; 0.01% solution): 80%
- % Worm Death (24 hr) (C. elegans [5]; 0.1% solution): 100%
- % Worm Death (24 hr) (P. trichosuri; 0.01% solution): ˜60%
- % Worm Death (24 hr) (P. trichosuri; 0.1% solution): ˜50%
- % Worm Death (24 hr) (M. incognita [6]; 0.01% solution): 83%
- % Worm Death (24 hr) (M. incognita [6]; 0.1% solution): 95%
- % Worm Death (48 hr) (M. javanica [7]; 0.01% solution): 5%
- % Worm Death (48 hr) (M. javanica [7]; 0.1% solution): 60%
- % Worm Death (24 hr) (H. glycines; 0.001% solution): ˜40%
- % Worm Death (24 hr) (H. glycines; 0.01% solution): ˜60%
- % Worm Death (24 hr) (H. glycines; 0.1% solution): ˜60%
- % Worm Death (24 hr) (P. scribneri; 0.01% solution): <20%
- % Worm Death (24 hr) (P. scribneri; 0.1% solution): <20%
- Nematicidal activity (in words) [8]: strongly nematicidal
- % Worm Death (24 hr) (C. elegans [9]; 0.001% solution): 40%
- % Worm Death (24 hr) (C. elegans [9]; 0.01% solution): 100%
- % Worm Death (24 hr) (C. elegans [9]; 0.1% solution): 100%
- % Worm Death (24 hr) (C. elegans [10]; 0.001% solution): ˜50%
- % Worm Death (24 hr) (C. elegans [10]; 0.01% solution): >80%
- % Worm Death (24 hr) (C. elegans [10]; 0.1% solution): >95%
- Effect on water (and electrolyte) absorption [11]: ineffective at suppressing water absorption

From US6903052B2, “Nematicidal compositions and methods” (Divergence, Inc., priority 2002, dated 2005)
